Reference: patent publication US8993282B2, “Carotenoid fermentation method” (JX Nippon Oil & Energy Corporation, priority 2008, dated 2015)

Test system: Paracoccus carotinifaciens strain E-396 (FERM BP-4283)
Experiment: Amino acid supplementation (20 amino acids), test tube culture, carotenoid by HPLC and growth by OD610
Assay type: cell-based
Settings: amino acid at 1.0 g/L; for Astaxanthin / Total carotenoid: culture solution; for Astaxanthin / Total carotenoid / OD610: 28° C. for 4 days; for OD610: microbial cell growth, absorbance at 610 nm; for effect on the production of carotenoid pigments: versus tube with no amino acid
Description: In the examples, carotenoids were quantified by high performance liquid chromatography (HPLC) as follows.
Two columns of Wakosil-II 5 SIL-100 (φ4.6×250 mm) (Wako Pure Chemical Industries, Ltd., Japan) were connected to each other for use as a column. Elution was performed by flowing an n-hexane-tetrahydrofuran-methanol mixed solution (40:20:1), which was a mobile phase, at a flow rate of 1.0 mL/minute at a constant temperature around room temperature. The measurement was performed as follows. Samples were each dissolved in tetrahydrofuran and then diluted 100-fold with the mobile phase. Each dilution was injected in a volume of 20 μL. The column eluate was detected at a wavelength of 470 nm. As a reference for quantification, astaxanthin (SIGMA, Cat. No. A9335) was used. The astaxanthin concentration of the reference solution was determined using the following equation after measuring the absorbance (A) of the reference solution at 477 nm and the area percentage % (B) of the astaxanthin peak at the time of HPLC analysis under the above conditions. Astaxanthin concentration (mg/L)=A/2150×B×100
A medium of the following composition (sucrose 30 g/L, corn steep liquor 30 g/L, potassium dihydrogenphosphate 1.5 g/L, disodium hydrogenphosphate 12-hydrate 3.8 g/L, calcium chloride dihydrate 5.0 g/L, magnesium sulfate 7-hydrate 0.7 g/L, iron sulfate 7-hydrate 0.3 g/L, pH 7.2) was dispensed in 8 ml volumes into cotton-plugged test tubes having an inner diameter of 18 mm and sterilized in an autoclave at 121° C. for 15 minutes to prepare a test tube medium for seed culture.
Next, a medium of the following composition (glucose 30 g/L, filtered corn steep liquor 5 g/L, ammonium sulfate 1.5 g/L, potassium dihydrogenphosphate 1.5 g/L, disodium hydrogenphosphate 12-hydrate 3.8 g/L, calcium chloride dihydrate 5.0 g/L, magnesium sulfate 7-hydrate 0.7 g/L, iron sulfate 7-hydrate 0.6 g/L, ester-based defoaming agent 0.2 g/L) was dispensed in 8 ml volumes into cotton-plugged test tubes having an inner diameter of 18 mm (21 tubes in total).
The mediums in these test tubes were supplemented with 20 amino acids, glycine, alanine, valine, leucine, isoleucine, serine, threonine, aspartic acid, glutamic acid, asparagine, glutamine, lysine, arginine, cysteine, methionine, phenylalanine, tyrosine, tryptophan, histidine and proline, respectively, at 1.0 g/L. One of the tubes was supplemented with no amino acid as a control. Finally, the mediums in the tubes were adjusted to pH 7.1 with aqueous sodium hydroxide or aqueous sulfuric acid and then sterilized in an autoclave at 121° C. for 20 minutes.
Paracoccus carotinifaciens strain E-396 (FERM BP-4283) was inoculated into the test tube medium for seed culture and then cultured with shaking at 28° C. for 2 days at 300 spm. The resulting culture solution was then inoculated in 0.1 ml volumes into the 21 test tube media, respectively, and cultured with shaking at 28° C. for 4 days at 300 spm.
Each culture solution was measured for its carotenoid concentration by HPLC and microbial cell growth was determined by OD610 (absorbance at 610 nm).

| Structure (SMILES) | Astaxanthin | Total carotenoid | OD610 | effect on the production of carotenoid pigments |
| --- | --- | --- | --- | --- |
| CC(C)[C@H](N)C(=O)O [Valine, valine] | 3.0 mg/L | 9.2 mg/L | 10 | – |
| NCC(=O)O [Glycine, glycine] | 6.2 mg/L | 19.0 mg/L | 18 | stimulatory effect |
| N=C(N)NCCC[C@H](N)C(=O)O [Arginine, arginine] | 5.1 mg/L | 11.7 mg/L | 13 | stimulatory effect |
| NCCCC[C@H](N)C(=O)O [Lysine, lysine] | 1.1 mg/L | 4.9 mg/L | 11 | clear inhibitory effect |
| CC(C)C[C@H](N)C(=O)O [Leucine, leucine] | 4.7 mg/L | 10.1 mg/L | 11 | stimulatory effect |
| CC[C@H](C)[C@H](N)C(=O)O [Isoleucine, isoleucine] | 1.3 mg/L | 4.5 mg/L | 6 | clear inhibitory effect |
| NC(=O)C[C@H](N)C(=O)O [Asparagine, asparagine] | 8.1 mg/L | 24.2 mg/L | 14 | stimulatory effect |
| O=C(O)[C@@H]1CCCN1 [Proline, proline] | 5.0 mg/L | 10.9 mg/L | 13 | stimulatory effect |
| N[C@@H](CO)C(=O)O [Serine, serine] | 6.0 mg/L | 16.4 mg/L | 13 | stimulatory effect |
| N[C@@H](Cc1c[nH]cn1)C(=O)O [Histidine, histidine] | 3.3 mg/L | 8.1 mg/L | 8 | – |
| N[C@@H](Cc1ccccc1)C(=O)O [Phenylalanine, phenylalanine] | 4.9 mg/L | 10.6 mg/L | 10 | stimulatory effect |
| N[C@@H](CS)C(=O)O [Cysteine, cysteine] | 0.7 mg/L | 3.2 mg/L | 4 | clear inhibitory effect |
| N[C@@H](Cc1c[nH]c2ccccc12)C(=O)O [Tryptophan, tryptophan] | 3.0 mg/L | 7.0 mg/L | 10 | – |
| N[C@@H](Cc1ccc(O)cc1)C(=O)O [Tyrosine, tyrosine] | 5.0 mg/L | 11.3 mg/L | 12 | stimulatory effect |
| CSCC[C@H](N)C(=O)O [Methionine, methionine] | 1.4 mg/L | 5.0 mg/L | 7 | clear inhibitory effect |
| N[C@@H](CC(=O)O)C(=O)O [Aspartic Acid, aspartic acid] | 9.4 mg/L | 27.0 mg/L | 18 | stimulatory effect |
| NC(=O)CC[C@H](N)C(=O)O [Glutamine, glutamine] | 8.3 mg/L | 25.8 mg/L | 17 | stimulatory effect |
| C[C@@H](O)[C@H](N)C(=O)O [Threonine, threonine] | 5.2 mg/L | 12.5 mg/L | 8 | stimulatory effect |
| C[C@H](N)C(=O)O [Alanine, alanine] | 6.2 mg/L | 20.3 mg/L | 13 | stimulatory effect |
